In ChEMBL document CHEMBL1131996, “Design, combinatorial chemical synthesis and in vitro characterization of novel urea based gelatinase inhibitors” (Bioorg Med Chem Lett, 1999) one finds IC50 data, which are given here for 35 compounds.

By IC50 is commonly meant the midpoint of a concentration-inhibition curve. Read a high IC50 as weaker potency in that assay.

The structures appear in SMILES notation. Values joined by “and” are separate entries in the source; they are usually repeats but may differ in a detail not shown here. Equal entries are not always repeated. Bounds are passed on as bounds.

This test has as its target 72 kDa type IV collagenase (Homo sapiens, UniProt P08253). Nature of the test: Inhibitory activity against matrix metalloprotease-2 (MMP-2).

Chain of 72 kDa type IV collagenase (P08253 whole entry): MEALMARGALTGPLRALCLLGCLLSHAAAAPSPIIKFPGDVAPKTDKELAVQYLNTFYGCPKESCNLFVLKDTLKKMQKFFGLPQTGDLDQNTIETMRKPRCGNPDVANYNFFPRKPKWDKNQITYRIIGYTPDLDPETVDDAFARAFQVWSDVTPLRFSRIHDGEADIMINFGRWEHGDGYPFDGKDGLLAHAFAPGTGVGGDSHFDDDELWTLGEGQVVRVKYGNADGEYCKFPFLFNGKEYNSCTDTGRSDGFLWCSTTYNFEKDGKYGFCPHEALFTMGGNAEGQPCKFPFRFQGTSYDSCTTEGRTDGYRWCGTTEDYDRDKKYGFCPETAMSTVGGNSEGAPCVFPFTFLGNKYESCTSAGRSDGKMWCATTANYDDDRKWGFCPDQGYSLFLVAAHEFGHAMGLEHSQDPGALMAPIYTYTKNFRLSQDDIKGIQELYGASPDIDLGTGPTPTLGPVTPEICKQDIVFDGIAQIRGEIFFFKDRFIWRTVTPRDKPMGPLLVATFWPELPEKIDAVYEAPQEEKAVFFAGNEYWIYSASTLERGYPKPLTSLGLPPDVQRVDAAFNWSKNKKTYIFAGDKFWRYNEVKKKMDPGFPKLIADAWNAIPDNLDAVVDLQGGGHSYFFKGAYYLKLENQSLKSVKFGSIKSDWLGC

In turn, `O=C(CN(C(=O)CN(CCCc1ccccc1)C(=O)Nc1ccc(Oc2ccccc2)cc1)C1CCCc2ccccc21)NO` (stereo not given) had an IC50 above 500 µM. Compound `O=C(CN(CCCc1ccccc1)C(=O)CN(Cc1ccccc1)C(=O)Nc1ccc(Oc2ccccc2)cc1)NO` had an IC50 of 43 µM. The result for `O=C(CN(CCCCc1ccccc1)C(=O)CN(CCCCc1ccccc1)C(=O)Nc1ccc(Oc2ccccc2)cc1)NO` reads 52 µM; that for `O=C(CN(CCc1ccc(F)cc1)C(=O)CN(CCCc1ccccc1)C(=O)Nc1ccc(Oc2ccccc2)cc1)NO`, 40 µM. `O=C(CN(C(=O)CN(CCCc1ccccc1)C(=O)Nc1ccc(Oc2ccccc2)cc1)C(c1ccccc1)c1ccccc1)NO` returned an IC50 of 200 µM.

The compound `CCCCCCCN(CC(=O)N(CCc1ccc(F)cc1)CC(=O)NO)C(=O)Nc1ccc(Oc2ccccc2)cc1` displayed an IC50 of 114 µM. The result for `O=C(CN(CCCc1ccccc1)C(=O)CN(CCCc1ccccc1)C(=O)Nc1ccc(Oc2ccccc2)cc1)NO` reads 2 µM; that for `CCCCCCCN(CC(=O)NO)C(=O)CN(CCCc1ccccc1)C(=O)Nc1ccc(Oc2ccccc2)cc1`, 150 µM; that for `CCCCCN(CC(=O)NO)C(=O)CN(CCCc1ccccc1)C(=O)Nc1ccc(Oc2ccccc2)cc1`, 100 µM. The result for `CCCCN(CC(=O)NO)C(=O)CN(CCCc1ccccc1)C(=O)Nc1ccc(Oc2ccccc2)cc1` reads 230 µM. The result for `CC(C)(C)N(CC(=O)N(CC(=O)NO)CC1CCCCC1)C(=O)Nc1ccc(Oc2ccccc2)cc1` reads 150 µM; that for `O=C(CN(Cc1ccccc1)C(=O)CN(CC1CCCCC1)C(=O)Nc1ccc(Oc2ccccc2)cc1)NO`, 125 µM; that for `CCCCN(CC(=O)N(CC(=O)NO)C(C)CC)C(=O)Nc1ccc(Oc2ccccc2)cc1` (stereo not given), 54 µM. Take `O=C(CN(Cc1ccccc1)C(=O)CN(CCCc1ccccc1)C(=O)Nc1ccc(Oc2ccccc2)cc1)NO`: the IC50 was 0.3 µM. The same measure for `CCC(C)N(CC(=O)NO)C(=O)CN(CCCc1ccccc1)C(=O)Nc1ccc(Oc2ccccc2)cc1` (stereo not given): 370 µM. In the case of `CCCCCN(CC(=O)NO)C(=O)CN(C(=O)Nc1ccc(Oc2ccccc2)cc1)C(C)CCC` (stereo not given), the IC50 came to 160 µM. `CC(C)N(CC(=O)N(CC(=O)NO)C(C)(C)C)C(=O)Nc1ccc(Oc2ccccc2)cc1` showed an IC50 of 155 µM. Take `CCCCCCCN(CC(=O)NO)C(=O)CN(CCCCC)C(=O)Nc1ccc(Oc2ccccc2)cc1`: the IC50 came out at 60 µM.

Consider `CCC(C)N(CC(=O)N(CC(=O)NO)C(C)C)C(=O)Nc1ccc(Oc2ccccc2)cc1` (stereo not given), for which inhibition was half-maximal at 72 µM (IC50). In the case of `CC(C)N(CC(=O)NO)C(=O)CN(CCc1ccc(F)cc1)C(=O)Nc1ccc(Oc2ccccc2)cc1`, the IC50 turned out to be 90 µM. The result for `CCC(C)N(CC(=O)NO)C(=O)CN(Cc1ccccc1)C(=O)Nc1cccc2ccccc12` (stereo not given) reads 110 µM; that for `CCCCN(CC(=O)NO)C(=O)CN(CCc1ccc(F)cc1)C(=O)Nc1ccc(Oc2ccccc2)cc1`, 51 µM; that for `CC(C)(C)N(CC(=O)NO)C(=O)CN(CCCc1ccccc1)C(=O)Nc1ccc(Oc2ccccc2)cc1`, above 500 µM. The same measure for `CCCCCN(CC(=O)NO)C(=O)CN(CCCCc1ccccc1)C(=O)Nc1cc(Cl)ccc1OC`: above 500 µM; for `O=C(CN(CC1CCCCC1)C(=O)CN(CCCc1ccccc1)C(=O)Nc1ccc(Oc2ccccc2)cc1)NO`: above 500 µM; for `CCCCN(CC(=O)NO)C(=O)CN(CC1CCCCC1)C(=O)Nc1ccc([N+](=O)[O-])cc1C`: above 500 µM. The result for `CCCCCCCN(CC(=O)NO)C(=O)CN(C(=O)Nc1ccc(OCCCC)cc1)C(c1ccccc1)c1ccccc1` reads above 500 µM; that for `CSc1ccccc1NC(=O)N(CCCc1ccccc1)CC(=O)N(CC(=O)NO)C(C)(C)C`, 150 µM.

With `O=C(CN(C(=O)CN(C(=O)Nc1ccc(Oc2ccccc2)cc1)C1CCCc2ccccc21)C1CCCc2ccccc21)NO` (stereo not given), the IC50 is 60 µM. The same measure for `O=C(CN(C(=O)CN(C(=O)Nc1ccc(Oc2ccccc2)cc1)C(c1ccccc1)c1ccccc1)C(c1ccccc1)c1ccccc1)NO`: 50 µM; for `O=C(CN(CCCCc1ccccc1)C(=O)CN(CCCc1ccccc1)C(=O)Nc1ccc(Oc2ccccc2)cc1)NO`: 0.9 µM and 0.3 µM; for `CC(C)N(CC(=O)NO)C(=O)CN(CCCc1ccccc1)C(=O)Nc1ccc(Oc2ccccc2)cc1`: above 500 µM.

The compound `CCCC(C)N(CC(=O)NO)C(=O)CN(C(=O)Nc1ccc2ccccc2c1)C1CCCc2ccccc21` (stereo not given) gave a concentration for half-maximal inhibition (IC50) of 120 µM.

In turn, `CCCC(C)N(CC(=O)NO)C(=O)CN(CCCc1ccccc1)C(=O)Nc1ccc(Oc2ccccc2)cc1` (stereo in doubt; form 1) had an IC50 of 23 µM. The same measure for `CCCC(C)N(CC(=O)NO)C(=O)CN(CCCc1ccccc1)C(=O)Nc1ccc(Oc2ccccc2)cc1` (stereo in doubt; form 2): 100 µM.
